≈ marks a conversion by molar mass, not a printed value.
What was measured:
Bacillus subtilis = test: Antibacterial activity against Bacillus subtilis; type: functional
Cryptococcus neoformans = test: Antifungal activity against Cryptococcus neoformans; type: functional, organism-based
Aspergillus niger = test: Antifungal activity against Aspergillus niger; type: functional, organism-based
Escherichia coli = test: Antibacterial activity against Escherichia coli; type: functional
Micrococcus luteus = test: Antibacterial activity against Micrococcus luteus; type: functional
[1] = test system: Trichophyton mentagrophytes; test: Antifungal activity against Trichophyton mentagrophytes; type: functional, organism-based
Candida albicans = test: Antifungal activity against Candida albicans; type: functional, organism-based
Staphylococcus aureus = test: Antibacterial activity against Staphylococcus aureus; type: functional

SMILES	MIC (Bacillus subtilis)	IC50 (Cryptococcus neoformans)	IC50 (Aspergillus niger)	MIC (Escherichia coli)	MIC (Micrococcus luteus)	IC50 [1]	IC50 (Candida albicans)	MIC (Staphylococcus aureus)
O=C(O)/C(Cc1cc(Br)c(OCCC[n+]2ccccc2)c(Br)c1)=N/O	> 32 µg/mL	> 32 µg/mL	32 µg/mL	> 32 µg/mL	> 32 µg/mL	> 32 µg/mL	> 32 µg/mL	> 32 µg/mL
NCCCOc1c(Br)cc(C/C(=N\O)C(=O)NCCC(=O)O)cc1Br	> 32 µg/mL	16 µg/mL (≈ 33.3 µM)	32 µg/mL (≈ 66.5 µM)	> 32 µg/mL	> 32 µg/mL	> 32 µg/mL	> 32 µg/mL	> 32 µg/mL
